Results: BigSolDB 2.1

Settings: in water

N[C@@H](CCC(=O)N[C@@H](CS)C(=O)NCC(=O)O)C(=O)O
Settings	solubility (mole fraction)
278.15 K	0.00427
283.15 K	0.00519
288.15 K	0.00659
293.15 K	0.00792
298.15 K	0.00936
303.15 K	0.0115
308.15 K	0.0139
313.15 K	0.0169
318.15 K	0.0202
